Source: patent US12690589B2, “Herbicidal compositions comprising pyroxasulfone” (BASF SE, priority 2024, dated 2026)
Where “and” joins values, the source holds several entries; their conditions need not be identical. Identical values can stand only once.

Key:
Experiment in all cases: Post-emergence application in field trials, herbicidal activity (damage scale 0 to 100%)
Type in all cases: in vivo
Glycine max (GLXMA) = test system: Glycine max (GLXMA)
Method in brief: (§1)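 Field sites with natural or seeded weeds were sprayed post-emergence via flat fan nozzles in 200 l/ha water plus 0.25 v/v % MSO adjuvant, solo or mixed with pyroxasulfone and other partners. Damage was scored 0–100% versus untreated plants at indicated DAT. Colby expected values were used to judge synergy.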

Senecio vulgaris (SENVU) = conditions: growth stage 61-62, height 25-30 cm
Method in brief: as §1

[1] = test system: Brachiaria plantaginea (BRAPL); conditions: growth stage 21-25, height 10-15 cm, 20 DAT, Table 2.1
[2] = test system: Commelina benghalensis (COMBE); conditions: 21 DAT
[3] = test system: Digitaria horizontalis (DIGHO); conditions: growth stage 25, height 5-10 cm, 21 DAT, Table 2.6
[4] = test system: Amaranthus cruentus (AMACR); conditions: height 20-25 cm
Procedure: (§2) In the examples below, using the method of S. R. Colby (1967) “Calculating synergistic and antagonistic responses of herbicide combinations”, Weeds 15, p. 22ff., the value E, which is expected if the activity of the individual active compounds is only additive, was calculated:
(§3) [formula] • wherein • X=percent activity using active herbicide A at an application rate a; • Y=percent activity using active herbicide B (e.g. pyroxasulfone) at an application rate b; • E=expected activity (in %) by A+B at application rates a+b.
(§4) If the value found experimentally is higher than the value E calculated according to Colby, a synergistic effect is present.
(§5) On field test sites, natural weed infestation or seeded weeds were treated post-emergence of the weeds.
(§6) In the field trials, the weeds were treated as indicated below.
(§7) In the following experiments, the herbicidal activity for the individual herbicidal compositions (solo and mixture applications) was assessed at the indicated days after treatment (DAT). The assessments for the damage on undesired weeds caused by the composition was carried out using a scale from 0 to 100%, compared to the untreated control plants. Here, 0 means no damage and 100 means complete destruction of the plants.
(§8) Herbicide A-1 (300 g/l) and pyroxasulfone (85% WG) were, together with addition of 0.25 l/ha Dash® MSO Max as adjuvant, formulated in water as distribution medium (water volume 200 l/ha) and sprayed with commercial flat fan nozzles.

[5] = test system: Amaranthus hybridus (AMACH); conditions: height 20-25 cm, 14 DAT, Table 3.1
Procedure: as §2, §3, §4, §5, §6, §7, §8

[6] = test system: Echinochloa colonum (ECHCO); conditions: height 20-25 cm, 25 DAT, Table 3.2
Procedure: as §2, §3, §4, §5, §6, §7, §8

Sorghum vulgare (SORVU) = conditions: height 20-25 cm, 14 DAT, Table 3.1
Procedure: as §2, §3, §4, §5, §6, §7, §8

[7] = 7 DAT, stage 12-13, height 7-11 cm, g ai/ha A-1 12.5, B 70, C-4 12.5
[8] = 42 DAT, stage 12-13, height 7-11 cm, g ai/ha A-1 18, B 70
[9] = 42 DAT, stage 12-13, height 7-11 cm, g ai/ha A-1 18, B 90

## CCOC(=O)COc1ccccc1Oc1nc(-n2c(=O)cc(C(F)(F)F)n(C)c2=O)c(F)cc1Cl [A-1, ethyl 2-[2-[[3-chloro-5-fluoro-6-[3-methyl-2,6-dioxo-4-(trifluoromethyl)pyrimidin-1-yl]-2-pyridyl]oxy]phenoxy]acetate]
Glycine max (GLXMA); [7]
  % Herbicidal activity: 90%
Glycine max (GLXMA); [8]
  % Herbicidal activity: 95%
Glycine max (GLXMA); [9]
  % Herbicidal activity: 95%
Glycine max (GLXMA); GLXMA, growth stage 12-13, height 7-11 cm, A-1 12.5 g ai/ha, 7 DAT, Table 4.1
  % Herbicidal activity: 90%
Glycine max (GLXMA); GLXMA, growth stage 12-13, height 7-11 cm, A-1 12.5 g ai/ha, 21 DAT, Table 4.3
  % Herbicidal activity: 95%
Glycine max (GLXMA); GLXMA, growth stage 12-13, height 7-11 cm, A-1 18 g ai/ha, 7 DAT, Table 4.1
  % Herbicidal activity: 90%
Glycine max (GLXMA); GLXMA, growth stage 12-13, height 7-11 cm, A-1 18 g ai/ha, 21 DAT, Table 4.3
  % Herbicidal activity: 92%
Senecio vulgaris (SENVU); A-1 12.5 g ai/ha, 7 DAT, Table 4.2
  % Herbicidal activity: 90%
Senecio vulgaris (SENVU); A-1 12.5 g ai/ha, 21 DAT, Table 4.4
  % Herbicidal activity: 40%
Senecio vulgaris (SENVU); A-1 18 g ai/ha, 21 DAT, Table 4.4
  % Herbicidal activity: 40%
[1]; A-1 25 g ai/ha
  % Herbicidal activity: 49%
[2]; growth stage 11-14, height 2-10 cm, A-1 50 g ai/ha, Table 2.6
  % Herbicidal activity: 94%
[2]; height 20-25 cm, A-1 25 g ai/ha, Table 2.2
  % Herbicidal activity: 42%
[3]; A-1 50 g ai/ha
  % Herbicidal activity: 92%
[4]; A-1 25 g ai/ha, 14 DAT, Table 3.1
  % Herbicidal activity: 88%
[4]; A-1 25 g ai/ha, 25 DAT, Table 3.2
  % Herbicidal activity: 89%
[4]; A-1 50 g ai/ha, 14 DAT, Table 3.1
  % Herbicidal activity: 91%
[4]; A-1 50 g ai/ha, 25 DAT, Table 3.2
  % Herbicidal activity: 91%
[5]; A-1 50 g ai/ha
  % Herbicidal activity: 87%
[6]; A-1 50 g ai/ha
  % Herbicidal activity: 55%
Sorghum vulgare (SORVU); A-1 50 g ai/ha
  % Herbicidal activity: 88%

## Cn1nc(C(F)(F)F)c(CS(=O)(=O)C2=NOC(C)(C)C2)c1OC(F)F [B, pyroxasulfone]
Glycine max (GLXMA); [7]
  % Herbicidal activity: 0%
Glycine max (GLXMA); [8]
  % Herbicidal activity: 0%
Glycine max (GLXMA); [9]
  % Herbicidal activity: 0%
Glycine max (GLXMA); GLXMA, growth stage 12-13, height 7-11 cm, B 70 g ai/ha, 7 DAT, Table 4.1
  % Herbicidal activity: 0%
Glycine max (GLXMA); GLXMA, growth stage 12-13, height 7-11 cm, B 70 g ai/ha, 21 DAT, Table 4.3
  % Herbicidal activity: 0%
Glycine max (GLXMA); GLXMA, growth stage 12-13, height 7-11 cm, B 90 g ai/ha, 7 DAT, Table 4.1
  % Herbicidal activity: 0%
Glycine max (GLXMA); GLXMA, growth stage 12-13, height 7-11 cm, B 90 g ai/ha, 21 DAT, Table 4.3
  % Herbicidal activity: 0%
Senecio vulgaris (SENVU); B 70 g ai/ha, 7 DAT, Table 4.2
  % Herbicidal activity: 30%
Senecio vulgaris (SENVU); B 70 g ai/ha, 21 DAT, Table 4.4
  % Herbicidal activity: 20% and 10%
Senecio vulgaris (SENVU); B 90 g ai/ha, 21 DAT, Table 4.4
  % Herbicidal activity: 20%
[1]; B 120 g ai/ha
  % Herbicidal activity: 0%
[2]; growth stage 11-14, height 2-10 cm, B 120 g ai/ha, Table 2.6
  % Herbicidal activity: 10%
[2]; height 20-25 cm, B 120 g ai/ha, Table 2.2
  % Herbicidal activity: 0%
[3]; B 120 g ai/ha
  % Herbicidal activity: 5%
[4]; B 120 g ai/ha, 14 DAT, Table 3.1
  % Herbicidal activity: 13%
[4]; B 120 g ai/ha, 25 DAT, Table 3.2
  % Herbicidal activity: 16%
[5]; B 120 g ai/ha
  % Herbicidal activity: 16%
[6]; B 120 g ai/ha
  % Herbicidal activity: 12%
Sorghum vulgare (SORVU); B 120 g ai/ha
  % Herbicidal activity: 5%
